For one series, the target named is factor X (Bos taurus, UniProt P00743). Put plainly: Factor X inhibition assay, Ki, bovine plasma enzyme. Conditions: bovine plasma (footnote e). The class given is biochemical. The protocol: All inhibition assays were performed at room temperature in 96 well microplates using Bio-Rad microplate reader (Model 3550). […] The hydrolysis of chromogenic subsstrates was monitored at 405 nm. The reaction progress curves were recorded by reading the plates, typically 60 times with 30 second to 2 minute intervals. Initial rates were determined by unweighted nonlinear least-squares fitting to a first order reaction in GraFit (Erithacus Software Limited, London, England).
Factor X: Buffer and substrate were the same as used for thrombin assay. A 1:100 dilution was made in the pH8.0 tris buffer to serve as the first point. Seven more dilutions from the first were made for the assay.

In a further series the target is factor VII (Homo sapiens, UniProt P08709). As to the kind of experiment: Factor VII inhibition assay, Ki (Example 5). The class given is biochemical. On the procedure: (§1) The reaction progress curves were recorded by reading the plates, typically 60 times with 30 second to 2 minute intervals. Initial rates were determined by unweighted nonlinear least-squares fitting to a first order reaction in GraFit (Erithacus Software Limited, London, England).
From this concentration point seven more sequential dilutions were made for the assay.

In series [1] the target is T1, Thrombin thrombomodulin complex (Bos taurus, UniProt P00735).
T1 construct: thrombin was preincubated with 4 n thrombomodulin for 20 minutes at room temperature
As to the kind of experiment: thrombin-thrombomodulin complex inhibition assay, Ki. In kind it is biochemical. Conditions: read-out: Ki T.T.C. (Thrombin thrombomodulin complex).
Experimental: Seven sequential dilutions were made from the first point for the assay.
The assay for thrombin-thromomodulin complex was conducted as for thrombin except that prior to the addition of inhibitor and substrate, thrombin was preincubated with 4 n thrombomodulin for 20 minutes at room temperature.

The target of the next series is T2, tryptase.
T2 construct: rows headed: Ki tryptase; Ki Tryptase; tryptase; human lung; 2 (nM assay conc.)
Put plainly: tryptase inhibition assay, Ki. In kind it is biochemical, human. The protocol: as §1
Tryptase: 0.1 M tris, 0.2 M NaCl, 0.1 mg/ml heparin, pH=8.0 was utilized as buffer. […] From this point seven more dilutions were made for the assay.

The target of a further series is T3, bovine trypsin (Bos taurus, UniProt P00760).
T3 construct: purchased Sigma
T3 sequence (P00760 24-246): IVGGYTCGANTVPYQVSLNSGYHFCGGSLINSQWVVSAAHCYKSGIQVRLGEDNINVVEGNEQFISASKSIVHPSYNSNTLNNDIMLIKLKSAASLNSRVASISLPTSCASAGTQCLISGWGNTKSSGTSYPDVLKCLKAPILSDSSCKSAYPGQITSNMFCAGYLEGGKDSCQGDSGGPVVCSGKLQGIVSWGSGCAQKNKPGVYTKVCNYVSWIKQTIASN
As to the kind of experiment: trypsin inhibition assay, IC50 (Example 4). The class given is biochemical. On the procedure:
All inhibition assays of this experiment were performed at room temperature in 96 well microplates using a Bio-Rad microplate reader (Model 3550). […] This solution (2.05 mM) served as the stock solution for all the inhibition assays. The hydrolysis of chromogenic substrates was monitored at 405 nm. The reaction progress curves were recorded by reading the plates typically 90 times with 30 seconds to 2 minute intervals. The initial rate were determined by unweighted nonlinear least-squares fitting to a first order reaction in GraFit. The determined initial velocities were then nonlinear least-square fitted against the concentrations of structure.
In the trypsin assay, pH 7.8 Tris (0.10 M Tris and 0.02 M CaCl2) was utilized as the buffer. BAPNA (from Sigma) was used at 1 mg/ml in 1% DMSO (v/v) deionized water solution as substrate. The same dilutions of structure (13b) were made as for Factor VII assay.

Series [2] can be described thus: pharmacodynamic and pharmacokinetic study in rats. The class given is in vivo, male Sprague Dawley rats. On the procedure: Specifically, a pharmacodynamic and pharmacokinetic study of structure (20b) was conducted in male Sprague Dawley rats. […] Groups of rats (n=3 or 4) were sacrificed and exsanguinated at 0.25, 0.5, 1, 2, 4 and 8 hours following dosing. Efficacy parameters, aPTT and TT, were measured for each plasma sample.

Chain of factor VII (P08709 213-466 limits assumed): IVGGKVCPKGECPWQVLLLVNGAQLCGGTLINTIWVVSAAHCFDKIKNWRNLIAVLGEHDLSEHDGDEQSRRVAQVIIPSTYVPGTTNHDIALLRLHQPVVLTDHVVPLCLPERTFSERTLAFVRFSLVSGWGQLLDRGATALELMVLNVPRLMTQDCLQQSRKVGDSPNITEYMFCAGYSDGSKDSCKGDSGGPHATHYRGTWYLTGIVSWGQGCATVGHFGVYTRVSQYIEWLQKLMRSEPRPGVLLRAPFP
Chain of factor VII (P08709 61-212 limits assumed): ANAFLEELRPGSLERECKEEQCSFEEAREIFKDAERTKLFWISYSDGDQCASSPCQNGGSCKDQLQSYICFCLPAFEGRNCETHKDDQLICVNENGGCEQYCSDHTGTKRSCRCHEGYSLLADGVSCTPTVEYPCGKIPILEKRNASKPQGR
Chain of factor VII (P13726 33-295 partner): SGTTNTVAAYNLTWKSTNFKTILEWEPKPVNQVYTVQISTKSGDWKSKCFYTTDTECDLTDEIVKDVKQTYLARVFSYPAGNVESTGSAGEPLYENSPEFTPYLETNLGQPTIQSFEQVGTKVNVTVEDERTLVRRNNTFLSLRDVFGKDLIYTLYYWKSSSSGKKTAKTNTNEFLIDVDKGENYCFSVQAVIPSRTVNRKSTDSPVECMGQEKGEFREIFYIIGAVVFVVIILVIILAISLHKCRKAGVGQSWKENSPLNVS
Chain of factor X (P00743 234-492 limits assumed): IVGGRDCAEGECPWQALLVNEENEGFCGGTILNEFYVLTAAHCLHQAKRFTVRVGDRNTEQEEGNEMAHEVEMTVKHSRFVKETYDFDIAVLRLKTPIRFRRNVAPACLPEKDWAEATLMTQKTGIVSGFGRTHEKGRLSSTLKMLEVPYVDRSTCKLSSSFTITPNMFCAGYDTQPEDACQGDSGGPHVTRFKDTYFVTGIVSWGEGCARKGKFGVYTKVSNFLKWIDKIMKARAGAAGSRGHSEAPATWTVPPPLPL
Chain of factor X (P00743 41-180 limits assumed): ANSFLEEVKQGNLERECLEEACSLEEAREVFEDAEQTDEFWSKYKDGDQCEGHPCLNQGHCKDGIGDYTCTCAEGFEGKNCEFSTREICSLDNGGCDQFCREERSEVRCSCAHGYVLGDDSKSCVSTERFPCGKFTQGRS

As for `N=C(N)NCCC[C@H](NC(=O)[C@@H]1CC[C@@H]2CC[C@](N)(Cc3ccccc3)C(=O)N21)C(=O)c1nc2ccccc2s1` [Structure (29a)], the values for the inhibitory constant (Ki) at factor X and on factor VII were 4650 nM and 1770 nM, respectively. Take `N=C(N)NCCC[C@H](NC(=O)[C@@H]1CC[C@@H]2CC[C@@](N)(Cc3ccccc3)C(=O)N21)C(=O)c1nc2ccccc2s1` [Structure (29b)]: the Ki in series [1] is 0.088 nM; at tryptase, 9 nM.

With `N=C(N)NCCC[C@H](NC(=O)[C@@H]1CCN2CC[C@@](N)(Cc3ccccc3)C(=O)N12)C(=O)CCl` [Structure (13b)], the IC50 against bovine trypsin stood at 16 ± 8 nM.

In the case of `N=C(N)NCCC[C@H](NC(=O)[C@@H]1CCN2CC[C@@](N)(Cc3ccccc3)C(=O)N12)C(=O)c1nc2ccccc2s1` [Structure (20b)], the “efficacy parameters aPTT and TT” value in series [2] (rat plasma, 4 mg/kg IV and 10 mg/kg PO, FIGS. 4A and 4B) was “in viva efficacy”. Besides, in series [2] (rat, 10 mg/kg PO vs 4 mg/kg IV), the “bioavailability of orally administered compound” value is reported as “approximately 27%”.

The values are drawn from patent US7125872B2, “β-sheet mimetics and use thereof as inhibitors of biologically active peptides or proteins” (Myriad Genetics, Inc., priority 1995, dated 2006).
